Test results published in patent US7087588B2, “Nitric oxide donors capable of reducing toxicity from drugs” (Nicox S.A., priority 1996, dated 2006).
Marks after values point to notes of the source that are not given here. One block for each compound: values may come before it.

Tests used:
[1] = Renal functionality and gastrointestinal tolerability in hypertensive rats after diclofenac, with or without DON-NO; type: in vivo, Sprague-Dawley male rats; details: spontaneously hypertensive rats, diclofenac 12 mg/kg i.p. daily, 5 days; nitroglycerin 3 mg/kg s.c.; vehicle = 100
guinea pigs = test: Capsaicin induced bronchoconstriction in enalapril-treated guinea pigs; type: in vivo, guinea pig; details: enalapril 10 mg/kg and/or NO-naproxen 10 mg/kg intraduodenally, capsaicin 1 μg/kg i.v. 45 minutes later, vehicle = 100
Description: Capsaicin-induced bronchoconstriction in guinea pigs is an animal model related to the ability of angiotensin-converting-enzyme inhibitors to provoke cough in patients (Subissi et al, J. Cardiovasc. Pharmacol. 20/1, 139–146, 1992).
Experimental conditions were as previously described by Del Soldato et al (J. Pharmacological Methods 5, 279, 1981). Female guinea pigs weighing 300–400 g were anesthetized through intraperitoneal injection of sodiun 5,5 diethylbarbiturate (200 mg/kg) and kept under artificial respiration at constant positive pressure. Jugular right vein was incannuled for the administration of the compounds. Animals received intraduodenally enalapril (10 mg/kg), vehicle (carboxymethyl cellulose 2% by weight) and/or NO-naproxen (10 mg/kg). Forty-five minutes later, it was injected intravenously 0.1 ml capsaicin (1 μg/kg). Before and after capsaicin injection, tidal air changes were measured by means of modified Konzett apparatus connected to a polygraph amplifier.
Results were calculated as ratio of the responses obtained before and after the administration of each treatment, expressed as % of the vehicle (control) response and shown in Table 7.

Washed human platelets = test: Nitric oxide generation by chemiluminescence, platelets (method b); type: cell-based; details: incubation of 100 μmoles of NO donor, 5 minutes
Description: Washed human platelets, prepared analogously with what described by Radomski et al, (Br. J. Pharmacol. 92, 639–1987), were utilized. Aliquots of 0.4 ml were incubated with scalar concentrations of NO donors (1–100 μg/ml) for 5 minutes. The incubation medium (f.i. Tyrode) was then analysed to determine the capacity of generating NO, by determination of nitric oxide by chemiluminiscence and cGMP, with the modalities described in the previous paragraph, for the analyses carried out on the endothelial cells. As to the determination by chemiluminescence, also in this case, on the basis of a calibration curve, prepared with scalar concentrations of nitrite, it was possible to determine quantitatively the concentration of generated NO. For instance, after incubation of 100 μmoles of nicorandil, an amount equal to 35 μmoles of NO was generated.

[2] = tested on: Cells of the human umbilical vein; test: Nitric oxide generation by chemiluminescence, endothelial cells (method a); type: cell-based; details: incubation of 100 μmoles of NO donor, 5 minutes
Description: In particular the test relates to the generation of nitric oxide from the NO donors of the present invention, among which, for instance, nitroglycerine, nicorandil, nitro-prussiate, etc., when they are put in the presence of endothelial cells (method a), or platelets (method b). Cells of the human umbilical vein, spread on the plate, with density of 10^3 cells/plate were incubated with scalar concentrations of NO donor (1–100 μg/ml) for 5 minutes. The incubation medium (physiologic solvent, for instance Tyrode) was then analyzed to determine the capacity to generate NO, by means of: • 1) the determination of nitric oxide by chemiluminescence; • 2) the cGMP determination (cyclic GMP No. 2715 of the above mentioned Merck). […] The nitrites/nitrates present in the medium in these conditions are converted into NO which is then determined after its reaction with ozone, with consequent generation of light. As it usually occurs in the devices measuring chemiluminescence, the produced luminescence is directly proportional to the NO levels generated and can be measured by the suitable photomultiplier unit of a chemiluminescence analyser. The photomultiplier converts the incident light into electric voltage, which is then quantitatively recorded. […]

rats = test: Tolerance to nitroglycerin after repeated subcutaneous administration in rats; type: in vivo, rat; details: nitroglycerin given with enalapril, repeated subcutaneous administration 1 mg/kg per day

Compound: O=C(O)Cc1ccccc1Nc1c(Cl)cccc1Cl [DICLOFENAC, diclofenac]
- BLOOD CREATININE, percent variation with respect to the control values [1]: 287* PERCENT

- BRONCHOCONSTRICTION (%), % of the vehicle (control) response (guinea pigs): 290%
Compound: CCOC(=O)[C@H](CCc1ccccc1)N[C@@H](C)C(=O)N1CCC[C@H]1C(=O)O [enalapril]

Compound: O=C(NCCO[N+](=O)[O-])c1cccnc1 [nicorandil, N-[2-(nitrooxy)ethyl]-3-pyridine-carboxamide]
- amount of NO generated (Washed human platelets): 35 µmol
- amount of NO generated [2]: about 10 μmoles

Compound: O=[N+]([O-])OCC(CO[N+](=O)[O-])O[N+](=O)[O-] [nitroglycerin, 1,2,3 propanetriol trinitrate]
- tolerance after repeated administration (rats): did not cause any tolerance
